Assay results taken from US20240336613A1, “HETEROARYL COMPOUNDS FOR TREATING HUNTINGTON'S DISEASE” (PTC THERAPEUTICS, INC., priority 2021, published 2024).
Where two headings read alike, the source gives them in different places.

Tested on: Huntingtin protein (HTT)
Assay: Endogenous Huntingtin Protein Assay (MSD electrochemiluminescence)
Type: cell-based
Conditions: for IC50: read-out: IC50
Method: Compounds of Formula (I) were tested using the Meso Scale Discovery (MSD) Assay provided in International Application No. PCT/US2016/066042, filed on Dec. 11, 2016 and claiming priority to United States Provisional Application U.S. 62/265,652 filed on Dec. 10, 2015, the entire contents of which are incorporated herein by reference.
The Endogenous Huntingtin Protein assay used in Example 1 was developed using the ELISA-based MSD electrochemiluminescence assay platform.
Meso Scale Discovery (MSD) 96-well or 384-well plates were coated overnight at 4° C. with MW1 (expanded polyglutamine) or MAB2166 monoclonal antibody (for capture) at a concentration of 1 μg/mL in PBS (30 μL per well). Plates were then washed three times with 300 μL wash buffer (0.05% Tween-20 in PBS) and blocked (100 μL blocking buffer; 5% BSA in PBS) for 4-5 hours at room temperature with rotational shaking and then washed three times with wash buffer.
Samples (25 μL) were transferred to the antibody-coated MSD plate and incubated overnight at 4° C. After removal of the lysates, the plate was washed three times with wash buffer, and 25 μL of #5656S (Cell signaling; rabbit monoclonal) secondary antibody (diluted to 0.25 μg/mL in 0.05% Tween-20 in blocking buffer) was added to each well and incubated with shaking for 1 Hour at room temperature. Following incubation with the secondary antibody, the wells were rinsed with wash buffer after which 25 μL of goat anti-rabbit SULFO TAG secondary detection antibody (required aspect of the MSD system) (diluted to 0.25 μg/mL in 0.05% Tween-20 in blocking buffer) was added to each well and incubated with shaking for 1 hour at room temperature. After rinsing three times with wash buffer, 150 μL of read buffer T with surfactant (MSD) were added to each empty well, and the plate was imaged on a SI 6000 imager (MSD) according to manufacturers' instructions provided for 96- or 384-well plates.

SMILES	IC50 (Table 1, Endogenous Huntingtin Protein Assay) [µM]	potency comparison, 1H-pyrazole moiety replaced with 1H-1,2,3-triazole moiety (Cpd 72 compared with Cpd 7 in WO2020/005873)	IC50 (Table 2, comparison compounds tested according to the assay of Example 1) [µM]
CC1(C)C[C@H](n2ccc3cc(-c4c(O)cc(-n5ccnn5)cc4F)nnc32)[C@H](F)C(C)(C)N1 [Cpd 27, 3-fluoro-2-{7-[(3S,4S)-3-fluoro-2,2,6,6-tetramethylpiperidin-4-yl]-7H-pyrrolo[2,3-c]pyridazin-3-yl}-5-(1H-1,2,3-triazol-1-yl)phenol]	< 0.1	–	–
CC1(C)CC(n2nnc3cc(-c4ccc(-n5ccnn5)cc4O)nnc32)CC(C)(C)N1 [Cpd 72 in WO2020/005873, reference compound]	–	significant loss in potency	0.179
